# Measurements as given in PMC10303384, “The Effect of Terbinafine and Its Ionic Salts on Certain Fungal Plant Pathogens” (Molecules, 2023).
# Read-outs that look alike come from different tables or passages of the source.
# Tests used:
# [1] = tested on: Valsa malicola (V. mali); experiment: In vitro fungicidal activity, mycelial (hyphae) growth inhibition on PDA; type: cell-based
# [2] = tested on: Botrytis cinerea (B. cinerea); experiment: as above; type: cell-based
# [3] = tested on: Pyricularia oryzae (P. oryzae); experiment: microbe, parasite or virus in culture; type: cell-based; conditions: for Inhibition Rate at 50 mg/L (%) P. o: mean ± SD of three replicates
# [4] = tested on: Phomopsis capsici (P. capsica); experiment: In vitro fungicidal activity, mycelial (hyphae) growth inhibition on PDA; type: cell-based
# [5] = tested on: Alternaria solani (A. solani); experiment: as above; type: cell-based
# [6] = tested on: Rhizoctonia solani (R. solani); experiment: microbe, parasite or virus in culture; type: cell-based
# [7] = tested on: Fusarium graminearum (F. graminearum); experiment: microbe, parasite or virus in culture; type: cell-based; conditions: for Inhibition Rate at 50 mg/L (%) F. g: mean ± SD of three replicates
# [8] = tested on: Pythium aphanidermatum (P. aphanidermatum); experiment: In vitro fungicidal activity, mycelial (hyphae) growth inhibition on PDA; type: cell-based
# [9] = Solubility classification in representative solvents (Vogel protocol); type: physicochemical; conditions: 25 °C, test amount 0.1 g; for solubility: thermodynamic from solid
# Experimental: This investigation details how to determine the solubility of terbinafine and its salts, guided by the experimental protocol in Vogel’s Textbook of Practical Organic Chemistry. Based on the Snyder polarity index values of the representative solvents, each solvent was tested for its ability to dissolve the target analytes. The solubility data was classified into three categories based on the observed extent of dissolution. […] The experimental procedures were performed at 25 °C and under ambient pressure.
# [10] = Solubility of saturated solutions by HPLC at 25 °C; type: physicochemical
# Source text: The filtrate was then passed through a 0.22 μm nylon membrane filter and subjected to HPLC analysis. Based on Wang’s report about the chromatographic parameters, modifications to the mobile phase ratio were made. The replicability of the results was ensured by performing each measurement in triplicate.
# [11] = Critical micelle concentration by electrical conductivity; conditions: 25 °C
# Experimental: The critical micelle concentrations (CMCs) of the TISs were measured using electrical conductivity at 25 °C, as shown in Figure S16.
# The critical micelle concentrations (CMCs) of all the TISs were determined using an electrical conductivity meter (Leica Desktop Conductivity Meter DDSJ-308F, Shanghai Oustor Industrial Co., Ltd. Shanghai, China).
# [12] = Surface tension of saturated aqueous solutions, Du Noüy ring method; conditions: 25 °C
# Experimental: This method involved adjusting the stage positioning of the solvent container such that a platinum ring could be immersed below the liquid interface or pulled through the meniscus. […] The maximum force was recorded as the surface tension of the solvent. To ensure accuracy, the platinum ring was thoroughly cleaned between each measurement through rinsing with double-distilled water and wiping it dry. The surface tension determination was performed in quadruplicate.
# [13] = tested on: B. cinerea on cherry tomatoes; experiment: In vivo antifungal bioassay on cherry tomatoes; set-up: species or system Botrytis cinerea; conditions: 20 mg/L; for Diameter of infection (cm) 4 days: 4 days after treatment; for Diameter of infection (cm) 7 days: 7 days after treatment
# [14] = read-out: EC50 (μmol/L), P. oryzae
# [15] = Fusarium graminearum, F. graminearum
# [16] = read-out: EC50 (μmol/L), F. graminearum
# [17] = DMSO, organic solvent or mixture, Snyder polarity index 6.5, read-out: Solubility in DMSO
# [18] = acetone, organic solvent or mixture, Snyder polarity index 5.1, read-out: Solubility in Acetone
# [19] = acetonitrile, organic solvent or mixture, Snyder polarity index 6.2, read-out: Solubility in Acetonitrile
# [20] = chloroform, organic solvent or mixture, Snyder polarity index 4.1, read-out: Solubility in Chloroform
# [21] = ethyl acetate, organic solvent or mixture, Snyder polarity index 4.3, read-out: Solubility in Ethyl acetate
# [22] = isopropanol, organic solvent or mixture, read-out: Solubility in Isopropanol
# [23] = methanol, organic solvent or mixture, Snyder polarity index 6.6, read-out: Solubility in Methanol
# [24] = n-hexane, organic solvent or mixture, Snyder polarity index 0.0, read-out: Solubility in n-Hexane
# [25] = toluene, organic solvent or mixture, Snyder polarity index 2.3, read-out: Solubility in Toluene
# [26] = water, Snyder polarity index 9.0, read-out: Solubility in Water
# [27] = acetone, organic solvent or mixture, thermodynamic from solid, Table S1, read-out: Solubility, Acetone
# [28] = acetonitrile, organic solvent or mixture, thermodynamic from solid, Table S1, read-out: Solubility, Acetonitrile
# [29] = ethyl acetate, organic solvent or mixture, thermodynamic from solid, Table S1, read-out: Solubility, Ethyl acetate
# [30] = isopropanol, organic solvent or mixture, thermodynamic from solid, Table S1, read-out: Solubility, Isopropanol
# [31] = n-hexane, organic solvent or mixture, thermodynamic from solid, Table S1, read-out: Solubility, n-Hexane
# [32] = toluene, organic solvent or mixture, thermodynamic from solid, Table S1, read-out: Solubility, Toluene
# [33] = water, thermodynamic from solid, Table S1, read-out: Solubility, Water
structure (smiles),measurement,setting,value
"CN(C/C=C/C#CC(C)(C)C)Cc1cccc2ccccc12.O=C(O)/C=C/C(=O)O [TIS 4, (E)-N,6,6-trimethyl-N-(naphthalen-1-ylmethyl)hept-2-en-4-yn-1-aminium (E)-3-carboxyacrylate]",EC50,[1],1.88 µg/mL
same,Inhibition Rate at 50 mg/L (%) V. m,[1],100 ± 0%
same,EC50,[1]; read-out: EC50 (μmol/L),4.6 µmol/L
same,Inhibition Rate at 50 mg/L (%) B. c,[2],100 ± 0%
same,EC50,[2]; Botrytis cinerea,0.15 µg/mL
same,EC50,[2]; read-out: EC50 (μmol/L),0.36 µmol/L
same,Inhibition Rate at 50 mg/L (%) P. o,[3],98.7 ± 0.54%
same,EC50,"[3]; Pyricularia oryzae, P. oryzae",0.75 µg/mL
same,EC50,[3]; [14],1.84 µmol/L
same,Inhibition Rate at 50 mg/L (%) P. c,[4],47.64 ± 1.58%
same,Inhibition Rate at 50 mg/L (%) A. s,[5],100 ± 0%
same,EC50,[5]; Alternaria solani,0.11 µg/mL
same,EC50,[5]; read-out: EC50 (μmol/L),0.28 µmol/L
same,Inhibition Rate at 50 mg/L (%) R. s,[6],85.82 ± 1.51%
same,EC50,[6]; Rhizoctonia solani,2.3 µg/mL
same,EC50,[6]; read-out: EC50 (μmol/L),5.65 µmol/L
same,Inhibition Rate at 50 mg/L (%) F. g,[7],100 ± 0%
same,higher bioactivity compared to terbinafine,"[7]; F. graminearum, from EC50",16%
same,EC50,[7]; [15],0.09 µg/mL
same,EC50,[7]; [16],0.21 µmol/L
same,Inhibition Rate at 50 mg/L (%) P. a,[8],65.23 ± 0.47%
same,solubility,[9]; [17],> 100 mg/mL
same,solubility,[9]; [18],< 33.3 mg/mL
same,solubility,[9]; [19],< 33.3 mg/mL
same,solubility,[9]; [20],< 33.3 mg/mL
same,solubility,[9]; [21],< 33.3 mg/mL
same,solubility,[9]; [22],< 33.3 mg/mL
same,solubility,[9]; [23],< 33.3 mg/mL
same,solubility,[9]; [24],< 33.3 mg/mL
same,solubility,[9]; [25],< 33.3 mg/mL
same,solubility,[9]; [26],< 33.3 mg/mL
same,solubility at 15 min,[10]; [27],2070 µM
same,solubility at 15 min,[10]; [28],301 µM
same,solubility at 15 min,"[10]; chloroform, organic solvent or mixture, thermodynamic from solid, Table S1, read-out: Solubility, Chloroform",321 µM
same,solubility at 15 min,[10]; [29],880 µM
same,solubility at 15 min,[10]; [30],1920 µM
same,solubility at 15 min,"[10]; methanol, organic solvent or mixture, thermodynamic from solid, Table S1, read-out: Solubility, Methanol",7750 µM
same,solubility at 15 min,[10]; [31],70.9 µM
same,solubility at 15 min,[10]; [32],0.261 µM
same,solubility at 15 min,"[10]; water, read-out: water solubility",1920 µM
same,solubility at 15 min,[10]; [33],1920 µM
same,critical micelle concentration (CMC),[11],0.31 mmol/L
same,surface tension of the saturated aqueous solution,[12],55.68 mN·m^−1
"CN(C/C=C/C#CC(C)(C)C)Cc1cccc2ccccc12.O=C(O)/C=C\C(=O)O [TIS 3, (E)-N,6,6-trimethyl-N-(naphthalen-1-ylmethyl)hept-2-en-4-yn-1-aminium (Z)-3-carboxyacrylate]",EC50,[1],2.03 µg/mL
same,Inhibition Rate at 50 mg/L (%) V. m,[1],100 ± 0%
same,EC50,[1]; read-out: EC50 (μmol/L),4.98 µmol/L
same,Inhibition Rate at 50 mg/L (%) B. c,[2],100 ± 0%
same,EC50,[2]; Botrytis cinerea,0.13 µg/mL
same,Inhibition Rate at 50 mg/L (%) P. o,[3],99.29 ± 0%
same,EC50,"[3]; Pyricularia oryzae, P. oryzae",0.58 µg/mL
same,EC50,[3]; [14],1.41 µmol/L
same,Inhibition Rate at 50 mg/L (%) P. c,[4],33.16 ± 2.52%
same,Inhibition Rate at 50 mg/L (%) A. s,[5],100 ± 0%
same,EC50,[5]; Alternaria solani,0.15 µg/mL
same,EC50,[5]; read-out: EC50 (μmol/L),0.36 µmol/L
same,better activity than terbinafine,[6],24%
same,Inhibition Rate at 50 mg/L (%) R. s,[6],83.4 ± 0.35%
same,EC50,[6]; Rhizoctonia solani,1.84 µg/mL
same,EC50,[6]; read-out: EC50 (μmol/L),4.51 µmol/L
same,Inhibition Rate at 50 mg/L (%) F. g,[7],100 ± 0%
same,EC50,[7]; [15],0.1 µg/mL
same,EC50,[7]; [16],0.24 µmol/L
same,Inhibition Rate at 50 mg/L (%) P. a,[8],69.54 ± 0%
same,solubility,[9]; [17],> 100 mg/mL
same,solubility,[9]; [18],< 33.3 mg/mL
same,solubility,[9]; [19],< 33.3 mg/mL
same,solubility,[9]; [20],> 100 mg/mL
same,solubility,[9]; [21],< 33.3 mg/mL
same,solubility,[9]; [22],< 33.3 mg/mL
same,solubility,[9]; [23],> 100 mg/mL
same,solubility,[9]; [24],< 33.3 mg/mL
same,solubility,[9]; [25],< 33.3 mg/mL
same,solubility,[9]; [26],< 33.3 mg/mL
same,solubility at 15 min,[10]; [27],3.76 µM
same,solubility at 15 min,[10]; [28],1490 µM
same,solubility at 15 min,[10]; [29],485 µM
same,solubility at 15 min,[10]; [30],3.06 µM
same,solubility at 15 min,[10]; [31],0.234 µM
same,solubility at 15 min,[10]; [32],42.1 µM
same,solubility at 15 min,[10]; [33],616 µM
same,Diameter of infection (cm) 4 days,[13],0.82 cm
same,Diameter of infection (cm) 7 days,[13],1.02 cm
same,surface tension of the saturated aqueous solution,[12],61.48 mN·m^−1
"CN(C/C=C/C#CC(C)(C)C)Cc1cccc2ccccc12.O=C(O)c1ccco1 [TIS 5, (E)-N,6,6-trimethyl-N-(naphthalen-1-ylmethyl)hept-2-en-4-yn-1-aminium furan-2-carboxylate]",Inhibition Rate at 50 mg/L (%) V. m,[1]; mean ± SD of three replicates,100 ± 0%
same,EC50 (mg/L),[1]; V. mali,1.49 mg/L
same,improvement of antifungal activity compared to terbinafine,"[1]; V. mali, from EC50",14%
same,EC50,"[1]; V. mali, read-out: EC50 (μmol/L)",3.69 µmol/L
same,Inhibition Rate at 50 mg/L (%) B. c,[2]; mean ± SD of three replicates,100 ± 0%
same,EC50 (mg/L),[2]; B. cinerea,0.13 mg/L
same,EC50,"[2]; B. cinerea, read-out: EC50 (μmol/L)",0.33 µmol/L
same,Inhibition Rate at 50 mg/L (%) P. o,[3],96.68 ± 0.42%
same,EC50 (mg/L),[3]; P. oryzae,0.49 mg/L
same,EC50,"[3]; P. oryzae, read-out: EC50",1.22 µmol/L
same,Inhibition Rate at 50 mg/L (%) P. c,[4]; mean ± SD of three replicates,55.88 ± 1.89%
same,Inhibition Rate at 50 mg/L (%) A. s,[5]; mean ± SD of three replicates,98.67 ± 0.61%
same,EC50 (mg/L),[5]; A. solani,0.08 mg/L
same,improvement of antifungal activity compared to terbinafine,"[5]; A. solani, from EC50",20%
same,EC50,"[5]; A. solani, read-out: EC50 (μmol/L)",0.2 µmol/L
same,EC50 (mg/L),[6],2.43 mg/L
same,Inhibition Rate at 50 mg/L (%) R. s,[6],82.02 ± 0.91%
same,EC50,[6]; read-out: EC50,6.02 µmol/L
same,Inhibition Rate at 50 mg/L (%) F. g,[7],100 ± 0%
same,EC50 (mg/L),[7]; F. graminearum,0.11 mg/L
same,EC50,"[7]; F. graminearum, read-out: EC50",0.27 µmol/L
same,Inhibition Rate at 50 mg/L (%) P. a,[8]; mean ± SD of three replicates,71.96 ± 2.68%
same,Solubility in n-Hexane,[9]; Snyder polarity index 0.0,"− (“−” means insoluble in a 3 mL solvent, poor solubility)"
same,Solubility in Toluene,[9]; Snyder polarity index 2.3,"+ (“+” means soluble in a 1 mL solvent, good solubility)"
same,Solubility in Chloroform,[9]; Snyder polarity index 4.1,"+ (“+” means soluble in a 1 mL solvent, good solubility)"
same,Solubility in Ethyl acetate,[9]; Snyder polarity index 4.3,"+ (“+” means soluble in a 1 mL solvent, good solubility)"
same,Solubility in Isopropanol,[9]; Snyder polarity index 4.3,"+ (“+” means soluble in a 1 mL solvent, good solubility)"
same,Solubility in Acetone,[9]; Snyder polarity index 5.1,"+ (“+” means soluble in a 1 mL solvent, good solubility)"
same,Solubility in Acetonitrile,[9]; Snyder polarity index 6.2,"+ (“+” means soluble in a 1 mL solvent, good solubility)"
same,Solubility in DMSO,[9]; Snyder polarity index 6.5,"+ (“+” means soluble in a 1 mL solvent, good solubility)"
same,Solubility in Methanol,[9]; Snyder polarity index 6.6,"+ (“+” means soluble in a 1 mL solvent, good solubility)"
same,Solubility in Water,[9]; Snyder polarity index 9.0,"− (“−” means insoluble in a 3 mL solvent, poor solubility)"
same,"Solubility, n-Hexane",[10]; Table S1,1.02 µM
same,water solubility,[10]; water,5.88 mmol/L
same,Diameter of infection (cm) 4 days,[13],0.61 cm
same,Diameter of infection (cm) 7 days,[13],0.74 cm
same,critical micelle concentration (CMC),[11],0.66 mmol/L
same,surface tension of the saturated aqueous solution,[12],51.26 mN·m^−1
